A word on the melting point: it is the temperature of the solid-liquid transition. `CN(C)S(=O)(=O)N[C@H]1CC[C@H](Nc2nccc(-n3ccc4c(C5(O)CCOCC5)cccc43)n2)CC1` [Compound 182, N-(4-{4-[4-(4-hydroxy-tetrahydropyran-4-yl)-indol-1-yl]-pyrimidin-2-ylamino}-cyclohexyl)-(N′,N′-dimethylamino)-sulfonamide]: the melting point is more than 300 °C.
To `CC(C)(O)[C@H]1CC[C@H](Nc2nccc(-n3ncc4c(OCCCO)cccc43)n2)CC1` [Compound 183, 3-(1-{2-[4-(2-hydroxy-prop-2-yl)-cyclohexyl-amino]-pyrimidin-4-yl}-1H-indazol-4-yloxy)-propan-1-ol] belongs 229.5 to 231 °C; to `CS(=O)(=O)CCCOc1cccc2c1cnn2-c1ccnc(N[C@H]2CC[C@H](C(=O)N3CCC(O)CC3)CC2)n1` [Compound 184, (4-hydroxy-piperidin-1-yl)-(4-{4-[4-(3-methane-sulfonyl-propoxy)-indazol-1-yl]-pyrimidin-2-ylamino}-cyclohexyl)-methanone], 143 to 145 °C.
The same measure for `CN([C@H]1CC[C@H](Nc2nccc(-n3ccc4c(CNS(C)(=O)=O)cccc43)n2)CC1)S(C)(=O)=O` [Compound 188, N-(4-{4-[4-(methane-sulfonylamino-methyl)-indol-1-yl]-pyrimidin-2-ylamino}-cyclohexyl)-N-methyl-methane-sulfonamide]: 226.5 to 228 °C.
To `CC(C)Oc1cccc2c1cnn2-c1ccnc(N[C@H]2CC[C@H](N(C)S(C)(=O)=O)CC2)n1` [Compound 189, N-{4-[4-(4-isopropoxy-indazol-1-yl)-pyrimidin-2-ylamino]-cyclohexyl}-N-methyl-methanesulfonamide] belongs 222 to 223 °C; to `CCCCOc1cccc2c1cnn2-c1ccnc(N[C@H]2CC[C@H](N(C)S(C)(=O)=O)CC2)n1` [Compound 190, N-{4-[4-(4-butoxy-indazol-1-yl)-pyrimidin-2-ylamino]-cyclohexyl}-N-methyl-methanesulfonamide], 191 to 192 °C; to `CC(C)COc1cccc2c1cnn2-c1ccnc(N[C@H]2CC[C@H](N(C)S(C)(=O)=O)CC2)n1` [Compound 191, N-{4-[4-(4-isobutoxy-indazol-1-yl)-pyrimidin-2-ylamino]-cyclohexyl}-N-methyl-methanesulfonamide], 227 to 228 °C.
For `CS(=O)(=O)N[C@H]1CC[C@H](Nc2nccc(-n3ccc4c(C5(O)CCOCC5)cccc43)n2)CC1` [Compound 194, N-(4-{4-[4-(4-hydroxy-tetrahydropyran-4-yl)-indol-1-yl]-pyrimidin-2-ylamino}-cyclohexyl)-methanesulfonamide], the melting point was in the range of 248.3 to 249 °C.
The same measure for `CS(=O)(=O)N[C@H]1CC[C@H](Nc2nccc(-n3ccc4c(OCC5CCN(C(=O)OCc6ccccc6)CC5)cccc43)n2)CC1` [Compound 195, 4-{1-[2-(4-methane-sulfonylamino-cyclo-hexylamino)-pyrimidin-4-yl]-1H-indol-4-yloxymethyl}-piperidine-1-carboxylic acid benzyl ester]: 179 to 180 °C.
`CN([C@H]1CC[C@H](Nc2nccc(-n3ncc4c(OCCCNS(C)(=O)=O)cccc43)n2)CC1)S(C)(=O)=O` [Compound 197, N-[3-(1-{2-[4-(methane-sulfonyl-methylamino)-cyclohexylamino]-pyrimidin-4-yl}-1H-indazol-4-yloxy)-propyl]-methane-sulfonamide]: the melting point fell in the range of 259 to 259.5 °C.
To `CS(=O)(=O)N[C@H]1CC[C@H](Nc2nccc(-n3ccc4c(OCCCC#N)cccc43)n2)CC1` [Compound 202, N-(4-{4-[4-(3-cyano-propoxy)-indol-1-yl]-pyrimidin-2-ylamino}-cyclohexyl)-methane-sulfonamide] belongs 247 to 248 °C.
To `CC(=O)NCc1cccc2c1ccn2-c1ccnc(N[C@H]2CC[C@H](N(C)S(C)(=O)=O)CC2)n1` [Compound 205, N-(1-{2-[4-(methane-sulfonyl-methylamino)-cyclohexylamino]-pyrimidin-4-yl}-1H-indol-4-ylmethyl)-acetamide] belongs 210.5 to 212 °C; to `N#CCCCOc1cccc2c1ccn2-c1ccnc(N[C@H]2CC[C@H](C(=O)N3CCC(O)CC3)CC2)n1` [Compound 206, 4-(1-{2-[4-(4-hydroxy-piperidin-1-carbonyl)-cyclohexylamino]-pyrimidin-4-yl}-1H-indol-4-yloxy)-butyro-nitrile], 134 to 136 °C.
To `CC(C)(O)c1cccc2c1cnn2-c1ccnc(N[C@H]2CC[C@H](N3CCCS3(=O)=O)CC2)n1` [Compound 207, 2-(1-{2-[4-(1,1-dioxo-isothiazolidin-2yl)-cyclohexylamino]-pyrimidin-4-yl}-1H-indazol-4-yl)-propan-2-ol] belongs 204 to 205 °C.
As for `CC(C)(O)[C@H]1CC[C@H](Nc2nccc(-n3ccc4c(S(C)(=O)=O)cccc43)n2)CC1` [Compound 209, 2-{4-[4-(4-methane-sulfonyl-indol-1-yl)-pyrimidin-2-ylamino]-cyclohexyl}-propan-2-ol], the melting point was 217.8 to 218.5 °C.
To `CC(C)(O)[C@H]1CC[C@H](Nc2nccc(-n3ncc4c(OCCCNS(C)(=O)=O)cccc43)n2)CC1` [Compound 210, N-[3-(1-{2-[4-(2-hydroxyprop-2-yl)-cyclohexylamino]-pyrimidin-4-yl}-1H-indazol-4-yloxy)-propyl]-methane-sulfonamide] belongs 171 to 172 °C.
The same measure for `C[S+]([O-])CCCOc1cccc2c1ccn2-c1ccnc(N[C@H]2CC[C@H](C(C)(C)O)CC2)n1` (stereo partly drawn) [Compound 211, 2-(4-{4-[4-(3-methane-sulfinyl-propoxy)-indol-1-yl]-pyrimidin-2-ylamino}-cyclohexyl)-propan-2-ol]: 190.5 to 191 °C.
`CC(C)(O)c1cccc2c1cnn2-c1ccnc(N[C@H]2CC[C@H](NS(C)(=O)=O)CC2)n1` [Compound 212, N-(4-{4-[4-(2-hydroxy-prop-2-yl)-indazol-1-yl]-pyrimidin-2-ylamino}-cyclohexyl)-methanesulfonamide] came in with a melting point of 250 to 251 °C.
The same measure for `CC(=O)NCCCOc1cccc2c1cnn2-c1ccnc(N[C@H]2CC[C@H](N(C)S(C)(=O)=O)CC2)n1` [Compound 213, N-[3-(1-{2-[4-(methane-sulfonyl-methylamino)-cyclohexylamino]-pyrimidin-4-yl}-1H-indazol-4-yloxy)-propyl]-acetamide]: 226 to 227 °C.
The same measure for `CS(=O)(=O)CCCOc1cccc2c1ccn2-c1ccnc(N[C@H]2CC[C@H](CO)CC2)n1` [Compound 214, (4-{4-[4-(3-methanesulfonyl-propoxy)-indol-1-yl]-pyrimidin-2-ylamino}-cyclohexyl)-methanol]: 207 to 208 °C; for `CS(=O)(=O)CCCOc1cccc2c1cnn2-c1ccnc(N[C@H]2CC[C@H](N3CCCS3(=O)=O)CC2)n1` [Compound 215, [4-(1,1-dioxo-isothiazolidin-2-yl)-cyclohexyl]-{4-[4-(3-methane-sulfonyl-propoxy)-indazol-1-yl]-pyrimidin-2-yl}-amine]: 206 to 207 °C.
To `CC(=O)N[C@H]1CC[C@H](Nc2nccc(-n3ccc4c(S(C)(=O)=O)cccc43)n2)CC1` [Compound 218, N-{4-[4-(4-methane-sulfonyl-indol-1-yl)-pyrimidin-2-ylamino]-cyclohexyl}-acetamide] belongs 264 to 265 °C; to `COCCOc1cccc2c1ccn2-c1ccnc(N[C@H]2CC[C@H](NS(C)(=O)=O)CC2)n1` [Compound 221, N-(4-{4-[4-(2-methoxy-ethoxy)-indol-1-yl]-pyrimidin-2-ylamino}-cyclohexyl)-methanesulfonamide], 203 to 205 °C.
`COCCOc1cccc2c1ccn2-c1ccnc(N[C@H]2CC[C@H](C(=O)N3CCC(O)CC3)CC2)n1` [Compound 222, (4-hydroxy-piperidin-1-yl)-(4-{4-[4-(2-methoxy-ethoxy)-indol-1-yl]-pyrimidin-2-ylamino}-cyclohexyl)-methanone] registered a melting point of 134 to 135 °C.
To `CS(=O)(=O)CCCOc1cccc2c1ccn2-c1ccnc(N[C@H]2CC[C@H](C(=O)N3CC(O)C3)CC2)n1` [Compound 223, (3-hydroxy-azetidin-1-yl)-(4-{4-[4-(3-methane-sulfonyl-propoxy)-indol-1-yl]-pyrimidin-2-ylamino}-cyclohexyl)-methanone] belongs 152 to 153 °C; to `N#CCCCOc1cccc2c1cnn2-c1ccnc(N[C@H]2CC[C@H](C(=O)N3CCC(O)CC3)CC2)n1` [Compound 226, 4-(1-{2-[4-(4-hydroxy-piperidine-1-carbonyl)-cyclohexylamino]-pyrimidin-4-yl}-1H-indazol-4-yloxy)-butyro-nitrile], 201 to 202 °C; to `CC(C)(CO)COc1cccc2c1cnn2-c1ccnc(N[C@H]2CC[C@H](C(=O)N3CCC(O)CC3)CC2)n1` [Compound 227, (4-{4-[4-(3-hydroxy-2,2-dimethylpropoxy)-indazol-1-yl]-pyrimidin-2-ylamino}-cyclohexyl)-(4-hydroxy-piperidin-1-yl)-methanone], 213 to 214.5 °C.
`CS(=O)(=O)N[C@H]1CC[C@H](Nc2nccc(-n3ncc4c(OCCCS(N)(=O)=O)cccc43)n2)CC1` [Compound 228, 3-{1-[2-(4-methane-sulfonylamino-cyclo-hexylamino)-pyrimidin-4-yl]-1H-indazol-4-yloxy}-propane-1-sulfonic acid amide]: the melting point was 250 to 251 °C.
The same measure for `CN(C)S(=O)(=O)CCCOc1cccc2c1cnn2-c1ccnc(N[C@H]2CC[C@H](C(=O)N3CCC(O)CC3)CC2)n1` [Compound 229, 3-(1-{2-[4-(4-hydroxy-piperidin-1-carbonyl)-cyclohexylamino]-pyrimidin-4-yl}-1H-indazol-4-yloxy)-propane-1-sulfonic acid dimethylamide]: 190 to 191 °C.
The compound `CS(=O)(=O)N[C@H]1CC[C@H](Nc2nccc(-n3ccc4c(C5(O)CCS(=O)(=O)CC5)cccc43)n2)CC1` [Compound 230, N-(4-{4-[4-(4-hydroxy-1,1-dioxohexahydro-thiopyran-4-yl)-indol-1-yl]-pyrimidin-2-yl-amino}-cyclohexyl)-methanesulfonamide] displayed a melting point of more than 300 °C.
